The target in data set [1] is T1, integrins haα4 and β1 (VLA-4) expressed on CHO cells (Homo sapiens, UniProt P05556+P13612).
T1 construct: expressed in transfected cells; host or cells: CHO cells
As to the kind of experiment: In vitro Evaluation Test (1): binding of Eu3+-hVCAM-1 D1D7-IgG to CHO cells expressing integrins α4 and β1. Conditions: inhibition of Eu3+-hVCAM-1 D1D7-IgG binding to CHO cells expressing α4β1; Ki calculated from IC50. The procedure, abridged:
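CHO cells transduced with human α4 and β1 were grown for 2 days. They were incubated 1 h at room temperature with Eu3+-hVCAM-1 D1D7-IgG (diluted to 2 nM before addition) and compound, with or without 6% HSA, in HEPES pH 7.5 containing Ca2+, Mg2+ and 4 mM Mn2+. Time-resolved fluorescence gave IC50; Ki used a Scatchard-derived Kd (0.06–20 nM).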

The nature of data set [2]: Evaluation of oral bioavailability by mouse bioassay. It is filed as in vivo. The following applies: 10 mg/kg oral, female Balb/C mice, serum 15 minutes after administration, read-out: Blood level. As to the method: A test compound was suspended or dissolved in a proper administration medium to give a concentration of 1 mg/ml. To 7 to 9 week old female Balb/C mice, 10 mg/kg of the resulting suspension or solution was orally administered. Fifteen minutes after the administration, blood was collected from the postcava under anesthesia with ether and the serum was separated from it. The concentration of each test compound was determined by estimating the serum level from a calibration curve obtained with VCAM-1/VLA-4 inhibitory activity as an index or measuring the concentration by using LC/MS/MS.

T1 sequence (P13612 34-1032): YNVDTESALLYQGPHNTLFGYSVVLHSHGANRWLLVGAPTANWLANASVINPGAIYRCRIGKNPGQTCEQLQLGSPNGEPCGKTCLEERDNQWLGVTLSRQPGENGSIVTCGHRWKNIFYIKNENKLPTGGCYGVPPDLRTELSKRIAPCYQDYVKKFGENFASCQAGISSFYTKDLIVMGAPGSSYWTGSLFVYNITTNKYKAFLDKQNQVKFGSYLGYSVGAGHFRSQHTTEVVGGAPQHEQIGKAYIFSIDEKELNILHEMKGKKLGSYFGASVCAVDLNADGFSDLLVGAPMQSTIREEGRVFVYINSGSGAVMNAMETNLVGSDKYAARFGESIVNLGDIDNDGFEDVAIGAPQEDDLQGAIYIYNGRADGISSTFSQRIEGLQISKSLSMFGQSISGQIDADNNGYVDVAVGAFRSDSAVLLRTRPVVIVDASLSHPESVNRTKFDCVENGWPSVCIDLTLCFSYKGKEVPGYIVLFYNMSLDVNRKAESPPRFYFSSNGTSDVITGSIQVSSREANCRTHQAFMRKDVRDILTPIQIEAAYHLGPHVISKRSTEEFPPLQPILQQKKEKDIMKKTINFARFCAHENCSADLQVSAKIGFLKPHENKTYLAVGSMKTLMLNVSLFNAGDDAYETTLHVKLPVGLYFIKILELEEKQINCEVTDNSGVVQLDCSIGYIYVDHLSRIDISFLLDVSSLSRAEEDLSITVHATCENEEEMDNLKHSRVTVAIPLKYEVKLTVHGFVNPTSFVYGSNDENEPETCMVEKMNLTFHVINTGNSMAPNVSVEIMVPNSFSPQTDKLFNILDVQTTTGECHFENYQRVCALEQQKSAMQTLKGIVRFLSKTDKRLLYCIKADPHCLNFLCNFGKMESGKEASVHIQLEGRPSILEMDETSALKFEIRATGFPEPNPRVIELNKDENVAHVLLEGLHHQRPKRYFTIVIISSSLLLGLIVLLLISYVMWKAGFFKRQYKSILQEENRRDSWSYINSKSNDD
T1 sequence (P05556 21-798): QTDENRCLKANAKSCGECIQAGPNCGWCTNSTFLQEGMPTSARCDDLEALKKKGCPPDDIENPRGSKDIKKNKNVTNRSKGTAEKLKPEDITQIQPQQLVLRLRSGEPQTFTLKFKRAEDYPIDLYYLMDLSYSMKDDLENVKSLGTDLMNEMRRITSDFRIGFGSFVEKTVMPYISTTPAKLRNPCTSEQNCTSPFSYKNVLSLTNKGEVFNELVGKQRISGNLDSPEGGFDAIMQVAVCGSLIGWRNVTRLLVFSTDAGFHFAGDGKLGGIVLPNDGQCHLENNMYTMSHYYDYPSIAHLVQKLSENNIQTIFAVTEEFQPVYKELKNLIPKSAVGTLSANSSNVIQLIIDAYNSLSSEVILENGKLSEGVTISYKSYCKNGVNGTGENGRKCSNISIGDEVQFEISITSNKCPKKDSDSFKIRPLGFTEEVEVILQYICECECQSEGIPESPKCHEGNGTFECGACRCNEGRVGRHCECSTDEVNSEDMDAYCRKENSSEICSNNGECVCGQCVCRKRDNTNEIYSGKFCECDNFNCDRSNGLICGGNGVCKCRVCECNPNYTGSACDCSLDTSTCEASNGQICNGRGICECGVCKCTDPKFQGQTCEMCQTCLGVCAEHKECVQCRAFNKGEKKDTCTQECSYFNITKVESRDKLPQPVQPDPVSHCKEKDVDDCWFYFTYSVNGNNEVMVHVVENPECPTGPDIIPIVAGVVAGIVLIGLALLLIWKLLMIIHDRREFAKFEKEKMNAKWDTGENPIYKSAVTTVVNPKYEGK

Broadly, the Ki is a dissociation constant, usually derived from enzyme kinetics or from competition with a known ligand. `Cn1cc(C(=O)Nc2cc(F)c(CC(=O)N3C[C@@H](F)C[C@H]3CO[C@H]3CC[C@H](C(=O)O)CC3)cc2Cl)c2ccccc21` [Example 65, trans-4-(1-((5-Chloro-2-fluoro-4-((1-methyl-3-indolylcarbonyl)amino)phenyl)acetyl)-(4S)-fluoro-(2S)-pyrrolidinylmethoxy)cyclohexanecarboxylic acid]: the Ki in data set [1] is 4 nM. In data set [2], the concentration at 15 min amounted to 11500 ng/mL.

As to `CO[C@H]1C[C@@H](CO[C@H]2CC[C@H](C(=O)O)CC2)N(C(=O)Cc2cc(Cl)c(NC(=O)c3cn(C)c4ccccc34)cc2F)C1` [Example 116, trans-4-(1-((5-Chloro-2-fluoro-4-(1-methyl-3-indolylcarbonylamino)phenyl)acetyl)-(4S)-methoxy-(2S)-pyrrolidinylmethoxy)cyclohexanecarboxylic acid], the Ki in data set [1] was 2.5 nM. Also, the concentration at 15 min in data set [2] was determined as 9400 ng/mL.

`CO[C@@H]1CN(C(=O)Cc2ccc3nc(Nc4ccccc4C)oc3c2)C[C@@H]1Oc1ccc(C(=O)O)cc1` [Example 155, 4-((4R)-Methoxy-1-((2-(2-methylphenylamino)-6-benzoxazolyl)acetyl)-(3S)-pyrrolidinyloxy)benzoic acid]: the Ki in data set [1] was 20 nM. The concentration at 15 min in data set [2] is 571 ng/mL.

On to `Cn1cc(C(=O)Nc2cc(Cl)c(CC(=O)N3C[C@@H](F)C[C@H]3CO[C@H]3CC[C@H](C(=O)O)CC3)cc2Cl)c2ccccc21` [Example 72, trans-4-(1-(2,5-Dichloro-4-((1-methyl-1H-3-indolylcarbonyl)amino)phenylacetyl)-(4S)-fluoro-(2S)-pyrrolidinylmethoxy)cyclohexanecarboxylic acid], for which the Ki in data set [1] was 4.4 nM. The concentration at 15 min in data set [2] was 1880 ng/mL.

On to `O=C(Cc1cc(Cl)c(Nc2nc3ccccc3s2)cc1F)N1C[C@@H](F)C[C@H]1CO[C@H]1CC[C@H](C(=O)O)CC1` [Example 61, trans-4-(1-(4-(2-Benzothiazolyl)amino-5-chloro-2-fluorophenylacetyl)-(4S)-fluoro-(2S)-pyrrolidinylmethoxy)cyclohexanecarboxylic acid], for which, in data set [1], the Ki was 2.3 nM. The concentration at 15 min in data set [2] came to 3320 ng/mL.

With `O=C(Cc1cc(Cl)c(Nc2nc3cc(F)ccc3s2)cc1F)N1C[C@@H](F)C[C@H]1CO[C@H]1CC[C@H](C(=O)O)CC1` [Example 63, trans-4-(1-(5-Chloro-4-(5-fluoro-2-benzothiazolyl)amino-2-fluorophenylacetyl)-(4S)-fluoro-(2S)-pyrrolidinylmethoxy)cyclohexanecarboxylic acid], the Ki in data set [1] was 3.1 nM. Further, the concentration at 15 min in data set [2] came out at 8550 ng/mL.

Regarding `CO[C@H]1C[C@@H](CO[C@H]2CC[C@H](C(=O)O)CC2)N(C(=O)Cc2cc(Cl)c(NC(=O)c3cn(C)c4ccccc34)cc2Cl)C1` [Example 170, trans-4-(1-(2,5-Dichloro-4-((1-methyl-1H-3-indolylcarbonyl)amino)phenylacetyl)-(4S)-methoxy-(2S)-pyrrolidinylmethoxy)cyclohexanecarboxylic acid], the Ki in data set [1] is 4.3 nM. Moreover, in data set [2], the concentration at 15 min amounted to 3360 ng/mL.

In the case of `O=C(Cc1ccc(Nc2nc3cc(F)ccc3s2)c(Cl)c1)N1C[C@@H](F)C[C@H]1CO[C@H]1CC[C@H](C(=O)O)CC1` [Example 62, trans-4-(1-(3-Chloro-4-(5-fluoro-2-benzothiazolyl)aminophenylacetyl)-(4S)-fluoro-(2)-pyrrolidinylmethoxy)cyclohexanecarboxylic acid], the Ki in data set [1] is 3.4 nM. Moreover, the concentration at 15 min in data set [2] was found to be 3200 ng/mL.

As for `CCCO[C@H]1C[C@@H](CO[C@H]2CC[C@H](C(=O)O)CC2)N(C(=O)Cc2cc(Cl)c(NC(=O)c3cn(C)c4ccccc34)cc2F)C1` [Example 118, trans-4-(1-((5-Chloro-2-fluoro-4-(1-methyl-3-indolylcarbonylamino)phenyl)acetyl)-(4S)-propoxy-(2S)-pyrrolidinylmethoxy)cyclohexanecarboxylic acid], the Ki in data set [1] is 6.9 nM. For the same compound, the concentration at 15 min in data set [2] worked out at 5730 ng/mL.

Regarding `Cc1ccc(Cl)cc1Nc1nc2ccc(CC(=O)N3C[C@@H](F)C[C@H]3CO[C@H]3CC[C@H](C(=O)O)CC3)c(F)c2o1` [Example 43, trans-4-(1-((2-(5-Chloro-2-methylphenylamino)-7-fluoro-6-benzoxazolyl)acetyl)-(4S)-fluoro-(2S)-pyrrolidinylmethoxy)cyclohexanecarboxylic acid], the Ki in data set [1] was 6 nM. Moreover, the concentration at 15 min in data set [2] is 1190 ng/mL.

As to `O=C(O)C1CCC(OC[C@@H]2C[C@H](F)CN2C(=O)Cc2ccc3nc(Nc4ccccc4Br)oc3c2)CC1` (single isomer, unassigned) [25 (Isomer A)], the Ki in data set [1] is 18 nM. Also, in data set [2], the concentration at 15 min was found to be 1090 ng/mL.

Regarding `COC[C@@H]1CC[C@@H](CO[C@H]2CC[C@H](C(=O)O)CC2)N1C(=O)Cc1cc(Cl)c(NC(=O)c2cn(C)c3ccccc23)cc1F` [Example 141, trans-4-((1-(5-Chloro-2-fluoro-4-((1-methyl-3-indolyl)carbonylamino)phenyl)acetyl)-(5S)-methoxymethyl-(2S)-pyrrolidinylmethoxy)cyclohexanecarboxylic acid], the Ki in data set [1] was 21 nM. Moreover, in data set [2], the concentration at 15 min is 8820 ng/mL.

Turning to `Cn1cc(C(=O)Nc2cc(F)c(CC(=O)N3C[C@@H](F)C[C@H]3CO[C@H]3CC[C@H](C(=O)O)CC3)cc2Cl)c2cc(F)ccc21` [Example 74, trans-4-(1-((5-Chloro-2-fluoro-4-(((5-fluoro-1-methyl-3-indolyl)carbonyl)amino)phenyl)acetyl)-(4S)-fluoro-(2S)-pyrrolidinylmethoxy)cyclohexanecarboxylic acid], the Ki in data set [1] was 7.7 nM. Besides, the concentration at 15 min in data set [2] came out at 14100 ng/mL.

Regarding `C=CCO[C@H]1C[C@@H](CO[C@H]2CC[C@H](C(=O)O)CC2)N(C(=O)Cc2cc(Cl)c(NC(=O)c3cn(C)c4ccccc34)cc2F)C1` [Example 117, trans-4-((4S)-Allyloxy-1-((5-chloro-2-fluoro-4-(1-methyl-3-indolylcarbonylamino)phenyl)acetyl)-(2S)-pyrrolidinylmethoxy)cyclohexanecarboxylic acid], the Ki in data set [1] was 5.1 nM. The concentration at 15 min in data set [2] came to 2930 ng/mL.

As for `O=C(O)C1CCC(OC[C@@H]2C[C@H](F)CN2C(=O)Cc2ccc3nc(Nc4ccccc4Cl)oc3c2F)CC1` (stereo partly drawn) [Example 37, 4-(1-(2-(2-Chlorophenyl)amino-7-fluoro-6-benzoxazolylacetyl)-(4S)-fluoro-(2S)-pyrrolidinylmethoxy)cyclohexanecarboxylic acid], the Ki in data set [1] was 6.9 nM. The concentration at 15 min in data set [2] stood at 3690 ng/mL.

For the compound `Cc1ccccc1Nc1nc2ccc(CC(=O)N3C[C@@H](Sc4ccccc4)C[C@H]3CO[C@H]3CC[C@H](C(=O)O)CC3)cc2o1` [Example 123], the Ki in data set [1] was 5.8 nM. The concentration at 15 min in data set [2] turned out to be 705 ng/mL.

As for `CO[C@@H]1C[C@@H](CO[C@H]2CC[C@H](C(=O)O)CC2)N(C(=O)Cc2cc(Cl)c(NC(=O)c3cn(C)c4ccccc34)cc2F)C1` [Example 115, trans4-(1-((5-chloro-2-fluoro-4-(1-methyl-3-indolylcarbonylamino)phenyl)acetyl)-(4R)-methoxy-(2S)-pyrrolidinylmethoxy)cyclohexanecarboxylic acid], the Ki in data set [1] was 30 nM. Also, the concentration at 15 min in data set [2] was 888 ng/mL.

Source of the values: patent US7157487B2, “Vla-4 inhibitors” (Daiichi Pharmaceutical Co., Ltd., priority 2000, dated 2007).
